Like-named read-outs stand apart in the source and are kept apart here. One block for each compound: values may come before it.
How the values were obtained:
[1] = biological target: T1, heparanase (Homo sapiens, UniProt Q9Y251); assay: AGA*IA assay (fondaparinux cleavage, WST-1 colorimetric) for heparanase inhibition; assay type: biochemical
T1 sequence (Q9Y251 158-543 limits assumed): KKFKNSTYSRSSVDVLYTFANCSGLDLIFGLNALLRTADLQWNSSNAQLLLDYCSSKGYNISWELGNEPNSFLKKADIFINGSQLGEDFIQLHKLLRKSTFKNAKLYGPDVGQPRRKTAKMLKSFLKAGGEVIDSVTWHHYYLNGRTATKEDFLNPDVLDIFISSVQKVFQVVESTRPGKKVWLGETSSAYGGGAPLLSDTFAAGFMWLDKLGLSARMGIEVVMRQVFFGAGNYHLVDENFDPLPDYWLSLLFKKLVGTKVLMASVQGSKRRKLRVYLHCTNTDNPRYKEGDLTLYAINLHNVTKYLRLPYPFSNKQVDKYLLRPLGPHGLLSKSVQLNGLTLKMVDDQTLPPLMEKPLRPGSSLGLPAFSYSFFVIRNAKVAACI
T1 sequence (Q9Y251 36-109 limits assumed): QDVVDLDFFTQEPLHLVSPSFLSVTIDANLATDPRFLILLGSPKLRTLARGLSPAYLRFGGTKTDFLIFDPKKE
Protocol: All compounds were tested in a simple, accurate and robust microplate assay based on the cleavage of the synthetic heparin fragment, the pentasaccharide Fondaparinux (AGA*IA). This assay was originally developed by Hammond and coworkers [Hammond E, Li CP, Ferro V. Development of a colorimetric assay for heparanase activity suitable for kinetic analysis and inhibitor screening. […] Fondaparinux is cleaved by heparanase to generate a reducing disaccharide, which can be quantitatively measured via a colorimetric or a fluorescence assay, the last by the fluorescent sensor polymer-H [Schiemann S, Lühn S, Alban S. Development of both colorimetric and fluorescence heparinase activity assays using fondaparinux as substrate.
The assay measures the appearance of the disaccharide product of heparanase-catalyzed fondaparinux cleavage colorimetrically using the tetrazolium salt WST-1. Assay was essentially performed as described with minor modifications. Briefly, NUNC ELISA 96-well plates were pre-treated with a solution of 4% BSA (bovin serum albumin) in phosphate-buffered saline containing 0.05% Tween 20 (PBST), for 2 h at 37°C, then washed three times with PBST, dried by tapping on paper towel and stored at -20°C. Before use, once again, the plates were washed with PBST.
Then, the absorbance at 560 nm was measured through a microplate reader (Victor 3, Perkin Elmer).
Finally, the measurements were corrected by subtracting both the reagent background and the inner absorbance value of test compound. Table 2. IC50 value in AGA*IA assay, versus heparanase inhibition of selected compounds of present invention.

[2] = tested on: HT1080 (human fibrosarcoma); assay: SRB Cell Cytotoxicity Assay, 72h; assay type: cell-based; conditions: Conc. 2.5 µM, N.I.: Not Inhibition
[3] = tested on: U2OS (human osteosarcoma); assay: Matrigel cell invasion assay; assay type: cell-based
Protocol: (§1) Heparanase inhibitors were then evaluated for their activity on the invasive potential of HT1080 (human fibrosarcoma), U87MG (human glioblastoma astrocytoma) and U2OS (human osteosarcoma) human cell lines, using the Matrigel cell invasion assay which allows to assess the cell invasion ability of malignant and normal cells.
(§2) Invasion assay was performed using BioCoat cell culture inserts (BioCoat 8.0µm PET Membrane 24 Well Permeable Supports, Corning). Filters were coated with 100 µl of 300 µg/ml Matrigel dissolved in coating buffer (0.01M Tris pH 8.0, 0.7% NaCl) (Becton-Dickinson Sciences). DMEM (Dulbecco's Modified Eagle's Medium) containing 5% FBS was added to the lower chambers. Cells were pre-treated with heparanase inhibitors for 24 h, detached and added to the upper chambers in media containing the inhibitors. Cells were allowed to invade for 24 h at 37°C in a CO2 incubator and then unmigrated cells were removed from the upper chamber with a cotton swab. The invading cells were fixed, stained with 0.1% crystal violet for 10 min at room temperature, photographed and counted under inverted microscope.
(§3) Test compounds were analyzed at fixed concentration for several fields, in duplicates. Activity of test compounds was compared to the reference compound. Activity of most interesting compound was confirmed in a second cell invasion assay. Data were expressed as the percent invasion with respect to cell migration through uncoated insert membrane.

[4] = tested on: U87MG (human glioblastoma astrocytoma); assay: Matrigel cell invasion assay; assay type: cell-based
Protocol: as §1, §2, §3

[5] = tested on: HT1080 (human fibrosarcoma); assay: Matrigel cell invasion assay; assay type: cell-based
Protocol: as §1, §2, §3

[6] = tested on: U87MG (human glioblastoma astrocytoma); assay: SRB Cell Cytotoxicity Assay, 72h; assay type: cell-based; conditions: Conc. 2.5 µM, N.I.: Not Inhibition
[7] = tested on: U2OS (human osteosarcoma); assay: SRB Cell Cytotoxicity Assay, 72h; assay type: cell-based; conditions: Conc. 2.5 µM, N.I.: Not Inhibition
[8] = tested on: MMP-9; assay: Real-Time Quantitative PCR of mRNA gene expression in HT1080 cells; conditions: 24 h, Conc 1.0 uM
[9] = tested on: FGF-2; assay: as above; conditions: 24 h, Conc 1.0 uM
[10] = tested on: VEGF; assay: as above; conditions: 24 h, Conc 1.0 uM
[11] = tested on: FGF-1; assay: as above; conditions: 24 h, Conc 1.0 uM
[12] = Table 1, fluorinated vs non-fluorinated analogues
[13] = Table 3, fluorinated vs non-fluorinated derivatives, read-out: AGAIA assay IC50

IC50 [1, 12]: 2860 nM | IC50 ([1]; Table 2, class symbols): 1000 to 20000 nM | IC50 [1, 13]: 2860 nM
SMILES: COc1ccc(C(=O)Nc2ccc(CNc3ccc(-c4nc5cc(CC(=O)O)ccc5[nH]4)cc3F)cc2)cc1Br [Compound 10, 2-(2-(4-((4-(3-bromo-4-methoxybenzamido)benzyl)amino)-3-fluorophenyl)-1H-benzo[d]imidazol-5-yl)acetic acid]

IC50 ([1]; Table 2, class symbols): 500 to 990 nM
SMILES: COc1ccc(C(=O)Nc2ccc(CNc3ccc(-c4nc5cc(CC(=O)NCC(=O)O)ccc5[nH]4)cc3F)cc2)cc1Br [Compound 15, 2-(2-(2-(4-((4-(3-bromo-4-methoxybenzamido)benzyl)amino)-3-fluorophenyl)-1H-benzo[d]imidazol-5-yl)acetamido)acetic acid]
Concentration of test compounds at which the cell growth is inhibited by 50 % HT1080 [2]: N. I. | Invasion Assay U2OS ([3]; Conc. 2.5µM): + (+ : < 50%) | Invasion Assay U87MG ([4]; Conc. 2.5µM): + (+ : < 50%) | Invasion Assay HT1080 ([5]; Conc. 2.5µM): + (+ : < 50%) | Concentration of test compounds at which the cell growth is inhibited by 50 % U87MG [6]: N. I. | Concentration of test compounds at which the cell growth is inhibited by 50 % U2OS [7]: N. I.

SMILES: COc1ccc(C(=O)Nc2ccc(CNc3ccc(-c4nc5ccccc5[nH]4)cc3F)cc2)cc1Br [Compound 22]
Gene Expression (% mRNA vs. control) MMP-9 [8]: ∼ 52% | Gene Expression (% mRNA vs. control) FGF-2 [9]: ∼ 71% | Invasion Assay U2OS ([3]; Conc. 1.1µM): ++ (++: 50-90%) | Invasion Assay U87MG ([4]; Conc. 1.1µM): ++ (++: 50-90%) | Invasion Assay HT1080 ([5]; Conc. 1.1µM): ++ (++: 50-90%) | Gene Expression (% mRNA vs. control) VEGF [10]: ∼ 67% | Gene Expression (% mRNA vs. control) FGF-1 [11]: ∼ 77%

SMILES: COc1ccc(C(=O)Nc2ccc(CNc3ccc(-c4nc5ccccc5[nH]4)cc3)cc2)cc1Br [SST0408AA1, reference compound]
Gene Expression (% mRNA vs. control) MMP-9 [8]: ∼ 69% | Gene Expression (% mRNA vs. control) FGF-2 [9]: ∼ 92% | Gene Expression (% mRNA vs. control) VEGF [10]: ∼ 72% | Gene Expression (% mRNA vs. control) FGF-1 [11]: ∼ 97%

IC50 [1, 12]: > 10000 nM | IC50 [1, 13]: > 10000 nM
SMILES: COc1ccc(C(=O)Nc2ccc(CNc3ccc(-c4nc5cc(CC(=O)O)ccc5[nH]4)cc3)cc2)cc1Br [SST0914AA1, 2-(2-(4-((4-(3-bromo-4-methoxybenzamido)benzyl)amino)-phenyl)-1H-benzo[d]imidazol-5-yl)acetic acid, reference compound]

IC50 [1, 12]: > 10000 nM | IC50 [1, 13]: > 10000 nM
SMILES: COc1ccc(C(=O)Nc2ccc(CNc3ccc(-c4nc5cc(CC(=O)O)ccc5o4)cc3)cc2)cc1Br [SST0915AA1, 2-(2-(4-((4-(3-bromo-4-methoxybenzamido)benzyl)amino)phenyl)benzo[d]oxazol-5-yl)acetic acid, reference compound]

SMILES: Cc1ccc(C(=O)Nc2ccc(S(=O)(=O)O)c3cc(S(=O)(=O)O)cc(S(=O)(=O)O)c23)cc1NC(=O)c1cccc(NC(=O)Nc2cccc(C(=O)Nc3cc(C(=O)Nc4ccc(S(=O)(=O)O)c5cc(S(=O)(=O)O)cc(S(=O)(=O)O)c45)ccc3C)c2)c1 [Suramin, reference compound]
Invasion Assay U2OS ([3]; Conc. 10µM): - | Invasion Assay U87MG ([4]; Conc. 10µM): - | Invasion Assay HT1080 ([5]; Conc. 10µM): + (+ : < 50%)

— patent EP3381908A1, “2-(4-(4-(BROMO-METHOXYBENZAMIDO)BENZYLAMINO)PHENYL)BENZAZOLE DERIVATIVES AND THEIR USE AS ANTI-HEPARANASE” (Leadiant Biosciences SA, priority 2017, dated 2018)
